Read-outs that look alike come from different tables or passages of the source.
Key:
A375 (BRAF^V600E) = assay: Proliferation, A375 cells; format: cell-based
HCT115 (KRAS^G13D) = assay: Proliferation, HCT115 cells; format: cell-based
[1] = tested on: tumor cells bearing activating Ras mutations; assay: Growth of tumor cells bearing activating Ras mutations; format: cell-based; conditions: FIG. 6
Source text: (§1) In one embodiment, the MEK inhibitor of the combination therapy is either GDC-0973 or GDC-0623. […] FIG. 5. […] FIG. 6.

LS180 cells = assay: TGFα-stimulated LS180 cells, immunoblot of pAKT and pERK1/2; format: cell-based; conditions: 10 μg/mL MEHD7945A, 0.05 μM cobimetinib or combination 1 hour before 5 nM TGFα 12 minutes
Source text: (§2) Inhibition of the RAS/RAF/MEK and the PI3K/AKT pathways were explored in vitro using MEHD7945A and cobimetinib or the combination of both agents in KRAS-mutant colorectal cell lines. Two KRAS mutant colorectal cell lines were selected to assess the potential upregulation of phosphorylated AKT (pAKT) by cobimetinib due to the inhibition of negative feedback loops. Upregulation of pAKT upon MEK inhibition has been described in several cell systems (Mirzoeva et al. 2009; Diep et al 2011; Turke et al. 2012). Moreover, we investigated if the addition of MEHD7945A to cobimetinib treatment could enhance pAKT and pERK1/2 inhibition. LS180 cells were pretreated with 10 μg/mL MEHD7945A, 0.05 μM cobimetinib, or the combination thereof for one hour before stimulation with 5 nM TGFα for twelve minutes. DLD-1 cells were pretreated with 10 μg/mL MEHD7945A, 0.025 μM cobimetinib, or the combination thereof for 1 hour before stimulation with 5 nM TGFα for 12 minutes. Cell lysates were immunoblotted to detect phosphorylation of EGFR (pEGFR1068), phosphorylation of AKT (pAKTS473), and phosphorylation of ERK1/2 (pERK1/2 T202/Y204), and total protein levels of EGFR, AKT, or ERK1/2. The results are shown in FIG. 9 (left panel=LS180 cells, right panel=DLD-1 cells) (EGFR=epidermal growth factor receptor; ERK=extracellular signal regulated kinase; p=phosphorylated; TGFα=transforming growth factor α) […]

DLD-1 cells = assay: TGFα-stimulated DLD-1 cells, immunoblot of pAKT and pERK1/2; format: cell-based; conditions: 10 μg/mL MEHD7945A, 0.025 μM cobimetinib or combination 1 hour before 5 nM TGFα 12 minutes
Source text: as §2

[2] = tested on: LS180 Colorectal Adenocarcinoma Tumor Xenografts; assay: LS180 colorectal xenograft combination study (Example 7); format: in vivo, mice
Experimental: (§3) A combination study of MEHD7945A and cobimetinib was conducted in the KRAS-mutant colorectal xenograft models LS180 and DLD-1. Both of these models were selected because of their KRAS-mutant status and their EGFR and HER3 expression. Cobimetinib was administered as an aqueous solution orally at […] once daily for 21 days. MEHD7945A was administered IV once a week until Day 21 was reached. Tumor sizes and body weights were recorded twice weekly over the course of the study. Mice were promptly euthanized when tumor volume exceeded 2000 mm3 or if body weight loss was 20% of their starting weight.
(§4) To appropriately analyze the repeated measurement of tumor volumes from the same animals over time, a mixed-modeling approach was used (Pinheiro et al. 2009). This approach addressed both repeated measurements and modest drop-out rates due to non-treatment-related termination of animals before study end. This analysis was used to determine tumor growth inhibition as a percentage of vehicle (% TGI) or time to tumor progression (TTP).
After randomization, LS180 tumor bearing mice were given oral (PO) gavage doses of 0 (vehicle), 3, or 10 mg/kg cobimetinib (expressed as free-base equivalents) once a day (QD) for 21 days. Mice were given 25 mg/kg of MEHD7945A via intravenous (IV) bolus injection once per week (QW) for a total of three injections. In groups that received both agents, cobimetinib was administered first and immediately followed by MEHD7945A.

[3] = tested on: KRAS-Mutant DLD-1 Colorectal Adenocarcinoma Tumor Xenografts; assay: DLD-1 colorectal xenograft combination study (Example 7); format: in vivo, mice
Experimental: as §3, §4
(§5) After randomization, DLD-1 tumor bearing mice were given PO gavage doses of 0 (vehicle), 3, or 10 mg/kg cobimetinib (expressed as free-base equivalents) QD for 21 days. Mice received 25 mg/kg of MEHD7945A via IV bolus injection QW for a total of three injections. In groups that received both agents, cobimetinib was administered first and immediately followed by MEHD7945A.

[4] = tested on: BxPC3 Ductal Pancreatic Xenograft Tumors; assay: Pancreatic BxPC3 xenograft combination study (Example 8); format: in vivo, mice
Source text: as §4
as §5, with “randomization,” for “randomization, DLD-1 tumor bearing”, “(vehicle), 1,” for “(vehicle), 3,”, “or 5” for “or 10”, “Mice were given” for “Mice received”
Time to tumor progression (TTP) to twice (2×) initial tumor volume was monitored for each group following 21 days of dosing (see FIG. 13C). […] In FIG. 13 CI=confidence interval; CR=complete response (100% decrease in tumor volume); HB#8=histidine buffer; MCT=0.5% (w/v) methylcellulose, 0.2% (w/v) polysorbate 80; NA=not achieved; PR=partial response (50-99% decrease in tumor volume); TTP=time to tumor progression to twice (2×) or five times (5×) the initial tumor volume represents the group average in days.

[5] = tested on: tumor cells bearing activating B-RAF mutations; assay: Growth of tumor cells bearing activating B-RAF mutations; format: cell-based; conditions: FIG. 5
Source text: as §1

pHER3 (Tyr1289) = target: T1, pHER3 (Tyr1289) (Homo sapiens, UniProt P21860); assay: NRG-stimulated MCF-7 cells, immunoblot of pHER3; format: cell-based; conditions: 0.5 nM NRG for 10 min
T1 construct: endogenous in cells; host or cells: MCF-7
Experimental: (§6) The assays were performed as follows. […] FIG. 2A.

pAKT (Ser473) = assay: NRG-stimulated MCF-7 cells, immunoblot of pAKT; format: cell-based; conditions: 0.5 nM NRG for 10 min
Experimental: as §6

pERK1/2 (Thr202/Tyr204) [6] = assay: NRG-stimulated MCF-7 cells, immunoblot of pERK1/2; format: cell-based; conditions: 0.5 nM NRG for 10 min
Experimental: as §6

phosphorylated EGFR = target: T2, phosphorylated EGFR (Homo sapiens, UniProt P00533); assay: TGF-a-stimulated EGFR-NR6 cells, immunoblot of phosphorylated EGFR; format: cell-based; conditions: 1 hr pretreatment, 5 nM TGF-a for 10 min
T2 construct: expressed in transfected cells; host or cells: EGFR-NR6
Experimental: The assays were performed as follows. […] Cell lysates were subjected to immunoblotting to detect, pERK1/2 (Thr202/Tyr204), total EGFR, and phosphorylated EGFR. Since EGFR-NR6 cells only express EGFR all potential phosphorylation sites of EGFR were detected using a pTyr antibody.

pERK1/2 (Thr202/Tyr204) [7] = conditions: EGFR-NR6 cells, 1 hr pretreatment, 5 nM TGF-a for 10 min
Experimental: The assays were performed as follows. MCF-7 cells treated with indicated concentrations of MEHD7945A or anti-HER3 were stimulated with 0.5 nM NRG for 10 min. Cell lysates were immunoblotted to detect pHER3 (Tyr1289), pAKT (Ser473), pERK1/2 (Thr202/Tyr204), and total HER3. FIG. 2A. […] Cell lysates were subjected to immunoblotting to detect, pERK1/2 (Thr202/Tyr204), total EGFR, and phosphorylated EGFR. Since EGFR-NR6 cells only express EGFR all potential phosphorylation sites of EGFR were detected using a pTyr antibody.

FaDu cells = assay: FaDu xenograft, head and neck squamous cell carcinoma model; format: in vivo; conditions: FaDu tumors in CB17 SCID mice, 25 mg/kg intraperitoneally weekly, 2× loading dose, four treatments
Experimental: MEHD7945A, a commercially available anti-EGFR antibody, and an anti-HER3 antibody were tested in mice with established tumors derived from Fadu cells (ATCC HTB-43, Manassas, Va.) 5×10^6 FaDu cells were inoculated subcutaneously in CB17 SCID mice. Animals with similarly sized tumors were randomized into treatment cohorts (n=9/group) as follows: Vehicle (MEHD7945A formulation buffer), anti-EGFR antibody (25 mg/kg), anti-HER3 antibody (50 mg/kg), and MEHD7945A (25 mg/kg). Treatments were administered intraperitoneally, beginning with a 2× loading dose (50 or 100 mg/kg respectively) on the day of randomization and continuing weekly for a total of four treatments.

EGFR [8] = target: T3, EGFR (Homo sapiens, UniProt P00533); assay: Betacellulin- and amphiregulin-induced EGFR phosphorylation; format: cell-based
EGFR [9] = target: T3, EGFR; conditions: cited from earlier work
ERK1/2 and AKT pathways = conditions: A431 and BxPC3 cells
HER3-ECD = HER3-ECD (Homo sapiens, UniProt P21860); conditions: soluble competitor 0.02-20 μg/ml
[10] = cobimetinib 3 mg/kg PO QD 21 days
[11] = cobimetinib 10 mg/kg PO QD 21 days
[12] = MEHD7945A 25 mg/kg IV QW, three injections

## O=C(NOCCO)c1ccc2cncn2c1Nc1ccc(I)cc1F [GDC-0623]
A375 (BRAF^V600E)
  EC50: 7 nM
HCT115 (KRAS^G13D)
  EC50: 42 nM
[1]
  inhibiting the growth of tumor cells bearing activating Ras mutations: more activity

## O=C(c1ccc(F)c(F)c1Nc1ccc(I)cc1F)N1CC(O)([C@@H]2CCCCN2)C1 [GDC-0973, cobimetinib]
A375 (BRAF^V600E)
  EC50: 5 nM
HCT115 (KRAS^G13D)
  EC50: 520 nM
LS180 cells
  phosphorylation of AKT (pAKTS473): increased phosphorylation of AKT
  phosphorylation of ERK1/2 (pERK1/2 T202/Y204): partial inhibition
DLD-1 cells
  phosphorylation of AKT (pAKTS473): increased phosphorylation of AKT
  phosphorylation of ERK1/2 (pERK1/2 T202/Y204): partial inhibition
[2]; [10]
  TGI: 28%
[2]; [11]
  TGI: 63%
[3]; [10]
  TGI: 39%
[3]; [11]
  TGI: 62%
[4]; cobimetinib 1 mg/kg
  TTP 2× (time to tumor progression to twice initial tumor volume): 22 days
[4]; cobimetinib 1 mg/kg PO QD 21 days
  TGI: 88%
[4]; cobimetinib 5 mg/kg
  TTP 2× (time to tumor progression to twice initial tumor volume): 33 days
[4]; cobimetinib 5 mg/kg PO QD 21 days
  TGI: 109%
[5]
  inhibiting the growth of tumor cells bearing activating B-RAF mutations: more activity

B1: MEHD7945A: dual-action antibody which comprises two identical antigen binding domains, each of which specifically binds to both HER3 and EGFR (antibody, V domains shown)
VH: EVQLVESGGGLVQPGGSLRLSCAASGFTLSGDWIHWVRQAPGKGLEWVGEISAAGGYTDYADSVKGRFTISADTSKNTAYLQMNSLRAEDTAVYYCARESRVSFEAAMDYWGQGTLVTVSS
VL: DIQMTQSPSSLSASVGDRVTITCRASQNIATDVAWYQQKPGKAPKLLIYSASFLYSGVPSRFSGSGSGTDFTLTISSLQPEDFATYYCQQSEPEPYTFGQGTKVEIKR
pHER3 (Tyr1289)
  IC50, phosphorylation of HER3: 0.05 µg/mL
pAKT (Ser473)
  IC50, phosphorylation of AKT: 0.19 µg/mL
pERK1/2 (Thr202/Tyr204) [6]
  IC50, phosphorylation of ERK1/2: 1.13 µg/mL
Phosphorylated EGFR
  IC50, phosphorylation of EGFR: 0.03 µg/mL
pERK1/2 (Thr202/Tyr204) [7]
  IC50, phosphorylation of ERK1/2: 0.16 µg/mL
FaDu cells
  inhibition of tumor growth: more effective in inhibiting tumor growth than either an anti-EGFR specific or an anti-HER3 specific antibody
[2]; [12]
  TGI: 44%
[3]; [12]
  TGI: 62%
[4]; MEHD7945A 25 mg/kg
  TTP 2× (time to tumor progression to twice initial tumor volume): 39.5 days
[4]; [12]
  TGI: 107%
EGFR [8]
  betacellulin- and amphiregulin-induced EGFR phosphorylation: inhibited
EGFR [9]
  Kd: ~1.9 nM
ERK1/2 and AKT pathways
  inhibition of ERK1/2 and AKT pathways: as potently as the combination of anti-HER3 and cetuximab
HER3-ECD
  binding to immobilized HER3-ECD with increasing amounts of EGFR-ECD: reduced in a dose-dependent manner

Reference: patent US20140271634A1, “COMBINATIONS OF A MEK INHIBITOR COMPOUND WITH AN HER3/EGFR INHIBITOR COMPOUND AND METHODS OF USE” (The Regents of the University of California, priority 2013, published 2014)
